The record followed here is article PMC9945734 (BMC Medicine, 2023).

This test concerns PC-3-KQ cells. The test can be described thus: 3D spheroid invasion assay and screening of FDA-approved drugs. Format: cell-based, human. To be noted: compared to vehicle control; for activity at 0.01 µM / activity at 0.1 µM / activity at 1 µM / activity at 10 µM: Homo sapiens, 72 h, read-out: Invasion rates (%) of each drug’s multiple concentrations. As to the method: The invasion assay was performed as previously described. […] The plates were then centrifuged at 320 g for 4 min to cluster cells in the bottom of wells and incubated for 3 days. On the fourth day, 40 μL medium was removed from each well, 40 μL of the matrigel-medium mixture was added to each well, and cells were cultured for another 3 days. […] At the end of the incubation, images were taken using a phase contrast microscope (Eclipse Ti2, Nikon, Tokyo, Japan) with 10× object lenses, and the total area of cells and the core sphere area of cells (Fig. 1a) were measured using the Image J software. The invading area was calculated using the following formula: invasion area = total area of cells – core sphere area.
For drug screening, drugs were added to the matrigel-medium mixture when replacing the culture medium on day 4. For the initial round of screening, a final concentration of 10 μM was used for all drugs. Multiple drug concentrations were used for the second round of screening, including 0, 0.001, 0.01, 0.1, 1, and 10 μM. Duplicate wells were repeated for each concentration.

The mark [1] stands for this setting: 0.01 μM (first column so headed), secondary screening of 87 hit compounds (Table S1).
The mark [2] stands for this setting: 0.01 μM (second column so headed), secondary screening of 87 hit compounds (Table S1).
Where [3] appears, read: 0.1 μM, secondary screening of 87 hit compounds (Table S1).
[4] abbreviates: 1 μM, secondary screening of 87 hit compounds (Table S1).
Setting [5] is: 10 μM, secondary screening of 87 hit compounds (Table S1).
Setting [6] is: 0.01 μM (first column so headed), third screening of 25 hit compounds (Table S2).
Setting [7] is: 0.01 μM (second column so headed), third screening of 25 hit compounds (Table S2).
[8] abbreviates: 0.1 μM, third screening of 25 hit compounds (Table S2).
Setting [9] is: 1 μM, third screening of 25 hit compounds (Table S2).
Where [10] appears, read: 10 μM, third screening of 25 hit compounds (Table S2).

Like-named read-outs stand apart in the source and are kept apart here.

Consider `N[C@@H](Cc1cc(I)c(Oc2ccc(O)c(I)c2)c(I)c1)C(=O)O` [Liothyronine], for which the activity at 0.01 µM was found to be 93.5% under setting [1] and 97.4% under setting [2]. Also, under setting [3], the activity at 0.1 µM was determined as 93.3%. In addition, the activity at 1 µM under setting [4] was 92.5%. For the same compound, the activity at 10 µM under setting [5] stood at 50.6%.

On to `CCN(CC)CCNC(=O)c1c(C)[nH]c(/C=C2\C(=O)Nc3ccc(F)cc32)c1C` [Sunitinib], for which the activity at 0.01 µM came out at 88.6% under setting [1] and 94.9% under setting [2]. Besides, under setting [3], the activity at 0.1 µM is 83.7%. The activity at 1 µM under setting [4] stood at 61.1%. Besides, the activity at 10 µM under setting [5] is 0.8%.

Consider `CN(C)[C@@H]1C(=O)C(C(N)=O)=C(O)[C@@]2(O)C(=O)C3=C(O)c4c(O)ccc(Cl)c4[C@@](C)(O)[C@H]3C[C@@H]12.Cl` [Chlortetracycline (hydrochloride)], for which the “Invasion rates (%) of each drug’s multiple concentrations (μM)” value (from here on “Invasion rates (%)”) was found to be 99.62% under setting [1]; 99.02% under setting [2]; 97.93% under setting [3]; 95.42% under setting [4]; 45.01% under setting [5].

As to `Cn1cnc([N+](=O)[O-])c1Sc1ncnc2nc[nH]c12` [Azathioprine], the activity at 0.01 µM was 85.2% under setting [1] and 91.6% under setting [2]. For the same compound, the activity at 0.1 µM under setting [3] was found to be 80%. Further, the activity at 1 µM under setting [4] stood at 68.3%. Further, the activity at 10 µM under setting [5] was found to be 33.5%.

Regarding `O=C(Cn1ccnc1[N+](=O)[O-])NCc1ccccc1` [Benznidazol], the activity at 0.01 µM reads like this: under setting [1], 92.5%; under setting [2], 94.3%. The activity at 0.1 µM under setting [3] was 88.1%. Besides, the activity at 1 µM under setting [4] was determined as 90.9%. Also, the activity at 10 µM under setting [5] was 4.48%.

Take `Cc1ncc([N+](=O)[O-])n1C` [Dimetridazole]: the activity at 0.01 µM turned out to be 95.7% under setting [1] and 97.8% under setting [2]. Also, under setting [3], the activity at 0.1 µM stood at 88.8%. Besides, the activity at 1 µM under setting [4] was 71%. Also, the activity at 10 µM under setting [5] amounted to 3.61%.

With `CN(C)c1cc(NC(=O)CNC(C)(C)C)c(O)c2c1C[C@H]1C[C@H]3[C@H](N(C)C)C(=O)C(C(N)=O)=C(O)[C@@]3(O)C(=O)C1=C2O.CS(=O)(=O)O.CS(=O)(=O)O.CS(=O)(=O)O.CS(=O)(=O)O` [Tigecycline (tetramesylate)], the “Invasion rates (%)” value under setting [1] is 59.60%; the “Invasion rates (%)” value under setting [6] was 89.06%; the “Invasion rates (%)” value under setting [2] was found to be 77.93%; the “Invasion rates (%)” value under setting [7] came out at 89.80%; the “Invasion rates (%)” value under setting [3] is 4.93%; the “Invasion rates (%)” value under setting [8] is 88.10%. The “Invasion rates (%)” value under setting [4] was 4.75%, the “Invasion rates (%)” value under setting [9] was found to be 2.36%, the “Invasion rates (%)” value under setting [5] is listed as 8.35% and the “Invasion rates (%)” value under setting [10] worked out at 1.12%.

Regarding `COc1cccc2c1C(=O)c1c(O)c3c(c(O)c1C2=O)C[C@@](O)(C(=O)CO)C[C@@H]3O[C@H]1C[C@H](N)[C@H](O)[C@H](C)O1.Cl` [Doxorubicin (hydrochloride)], the “Invasion rates (%)” value under setting [1] is reported as 93.34%, the “Invasion rates (%)” value under setting [2] is reported as 92.49%, the “Invasion rates (%)” value under setting [3] was determined as 89.01% and the “Invasion rates (%)” value under setting [5] stood at 1.92%.

Regarding Acetylspiramycin, the “Invasion rates (%)” value came out at 96.71% under setting [1]; 96.46% under setting [2]; 96.77% under setting [3]; 87.68% under setting [4]; 2.37% under setting [5].

Consider `CO[C@@H]1[C@@H](O[C@@H]2O[C@H](C)[C@@H](O[C@H]3C[C@@](C)(O)[C@@H](OC(=O)CC(C)C)[C@H](C)O3)[C@H](N(C)C)[C@H]2O)[C@@H](CC=O)C[C@@H](C)[C@@H](O)/C=C/C=C/C[C@@H](C)OC(=O)C[C@H]1OC(C)=O` [Josamycin], for which the activity at 0.01 µM is 88.6% under setting [1] and 86.9% under setting [2]. Besides, the activity at 0.1 µM under setting [3] was 86.7%. The activity at 1 µM under setting [4] came to 78%. For the same compound, the activity at 10 µM under setting [5] is 15.5%.

Turning to `Cc1ncc([N+](=O)[O-])n1CC(O)CN1CCOCC1` (single isomer, unassigned) [Morinidazole (R enantiomer)], the “Invasion rates (%)” value is reported as 90.71% under setting [1]; 95.71% under setting [6]; 98.08% under setting [2]; 97.64% under setting [7]; 89.69% under setting [3]; 94.21% under setting [8]. Also, the “Invasion rates (%)” value runs as follows: under setting [4], 10.13%; under setting [9], 6.21%; under setting [5], 2.86%; under setting [10], 0.38%.

In the case of Spiramycin, the “Invasion rates (%)” value reads like this: under setting [1], 90.26%; under setting [2], 91.77%; under setting [3], 85.48%; under setting [4], 80.28%; under setting [5], 55.32%.

Turning to `CN(C)C(=O)c1cc2cnc(Nc3ccc(N4CCNCC4)cn3)nc2n1C1CCCC1` [Ribociclib], the activity at 0.01 µM reads like this: under setting [1], 99.5%; under setting [2], 101%. For the same compound, the activity at 0.1 µM under setting [3] amounted to 97.2%. Also, the activity at 1 µM under setting [4] came out at 96%. Besides, the activity at 10 µM under setting [5] came to 30.9%.

For the compound `CC(=O)[C@]1(O)Cc2c(O)c3c(c(O)c2[C@@H](O[C@H]2C[C@H](N)[C@H](O)[C@H](C)O2)C1)C(=O)c1ccccc1C3=O.Cl` [Idarubicin (hydrochloride)], the “Invasion rates (%)” value runs as follows: under setting [1], 80.06%; under setting [6], 95.32%; under setting [2], 88.67%; under setting [7], 98.46%; under setting [3], 83.45%; under setting [8], 100.06%. Moreover, the “Invasion rates (%)” value runs as follows: under setting [4], 7.74%; under setting [9], 1.25%; under setting [5], 3.85%; under setting [10], 1.34%.

As to `CN(C)[C@@H]1C(=O)C(C(N)=O)=C(O)[C@@]2(O)C(=O)C3=C(O)c4c(O)ccc(Cl)c4[C@@H](O)[C@H]3C[C@@H]12.Cl` [Demeclocycline (hydrochloride)], the “Invasion rates (%)” value turned out to be 92.92% under setting [1]; 93.85% under setting [6]; 97.24% under setting [2]; 95.74% under setting [7]; 81.08% under setting [3]; 89.49% under setting [8]. Further, the “Invasion rates (%)” value under setting [4] worked out at 41.75%, the “Invasion rates (%)” value under setting [9] was determined as 2.65%, the “Invasion rates (%)” value under setting [5] worked out at 4.21% and the “Invasion rates (%)” value under setting [10] is on record as 0.30%.
